Reference: patent US7268160B2, “Remedies” (Takara Bio, Inc., priority 2000, dated 2007)

Assays:
[1] = system: NGF production in the L-M cells; test: Enhancing activity for NGF production, Example 13 method (20 hours culture after addition); type: cell-based, murine; settings: for activity at 12.5 µM: added amount 12.5 μM; for Enhancement of NGF production (in words): L-M cells
Method: (§1) L-M cells (ATCC CCL-1.2) from murine fibroblasts were suspended in an M199 medium (manufactured by ICN) containing 0.5% bactopeptone (manufactured by Gibco BRL) so as to have a concentration of 1.5×10^5 cells/mi. The suspension was put in a 96-well plate in an amount of 0.1 ml each well, and the cells were aseptically cultured. After culturing the cells for 3 days, the medium was removed therefrom, and exchanged with an M199 medium containing 0.5% bovine serum albumin (manufactured by Sigma). Caffeic acid (manufactured by Sigma, dimethyl suif oxide (DMSO) solution), a substance known to have enhancing activity for NGF production, was added to each well containing the cells, so as to have a final concentration of 0, 50, 100 or 200 μM, and the cells were cultured for 24 hours. One having a caffeic acid concentration of 0 μM was used as a negative control. In addition, the final concentration of DM50 in each well was adjusted to 0.1%. After the termination of the culture, the NGF concentration in the culture medium was determined by an enzyme immunoassay method (NGF Emax Immuno Assay System, manufactured by Promega). The degree of the enhancement for NGF production of caffeic acid at each added amount was expressed in percentage as the enhancement ratio (%) on the basis of the NGF concentration in the cell culture medium at each added amount, when the NGF concentration in the cell culture medium of the negative control was defined as 100%. The experiment was carried out twice, and an average value was taken. It was shown that the enhancing activity for NGF production of caffeic acid could be assayed by this method.
The enhancing activity for NGF production of each of the compounds (5) to (12), (17) to (22), (24) and (25) prepared in Preparation Examples 2 to 9 and Examples 1 to 8, and the compound (23) (rosemarinic acid; manufactured by Funakoshi), or caffeic acid (CA), 4-methylcatechol (4MC) and epinephrine (EN), substances conventionally known to enhance NGF production was assayed in the same manner as in Reference Example 1. In addition, the time period for cell culture after the addition of the compound was 20 hours. A negative control was set for every test of each compound. Each experiment was carried out twice, and an average value was taken.
(1) L-M cells (ATCC CCL-1.2) from murine fibroblasts were suspended in an M199 medium (manufactured by ICN) containing 0.5% bactopeptone (manufactured by Gibco) so as to have a concentration of 1.5×10^5 cells/ml. The suspension was put in a 96-well plate in an amount of 0.1 ml each well, and the cells were aseptically cultured. After culturing the cells for 3 days, the medium was removed therefrom, and exchanged with an M199 medium containing 0.5% bovine serum albumin (manufactured by Sigma). Thereto was added an yellow pigment (powder Sun Yellow No. 2, manufactured by San-Ei Gen F.F.I.) obtained by extraction from flower of Carthamus tinctorius LINNE) as the sample so as to have a final concentration of 0, 1.25, 2.5 or 5 mg/ml, and the cells were cultured for 20 hours. After the termination of the culture, the NGF concentration in the culture medium was assayed by an enzyme immunoassay method (NGF Emax Immuno Assay System, manufactured by Promega). The degree of the enhancement for NGF production was expressed in the percentage as an enhancement ratio (%), when the NGF concentration in the cell culture medium with no addition of the sample as the negative control was defined as 100%. The experiment was carried out twice, and an average value was taken. […]
The enhancing activity for NGF production of the purified safflomin A thus obtained was determined in the same manner as in Example 13. The purified safflomin A was added so as to have a fmal concentration of 0 or 2.5 mg/ml. […]

[2] = system: NGF production in the L-M cells; test: Enhancing activity for NGF production, Reference Example 1 method (24 hours culture, NGF enzyme immunoassay of culture medium); type: cell-based, murine; settings: for Enhancement Ratio (%): negative control = 100%
Method: as §1
The enhancing activity for NGF production of the compound (13) (manufactured by Funakoshi) was assayed in the same manner as in Reference Example 1. The compound (13) was added so as to have a final concentration of 0, 0.5, 1, 2, 5, 10, 20 or 50 μM.
The enhancing activity for NGF production of a compound (14) (manufactured by Sigma) was assayed in the same manner as in Reference Example 1. The compound (14) was added so as to have a final concentration of 0, 50, 100 or 200 μM.
The enhancing activity for NGF production of a compound (15) (manufactured by Sigma) was assayed in the same manner as in Reference Example 1. The compound (15) was added so as to have a final concentration of 0, 12.5, 25 or 50 μM.
The enhancing activity for NGF production of a compound (16) (manufactured by Wako Pure Chemical Industries) was assayed in the same manner as in Reference Example 1. The compound (16) was added so as to have a final concentration of 0, 25, 50 or 100 μM.

[3] = Mus musculus, negative control = 100%, read-out: Enhancement Ratio (%)
[4] = Mus musculus, added amount 25 μM, negative control = 100%, read-out: Enhancement Ratio (%)
[5] = Mus musculus, added amount 50 μM, negative control = 100%, read-out: Enhancement Ratio (%)
[6] = Mus musculus, added amount 100 μM, negative control = 100%, read-out: Enhancement Ratio (%)
[7] = Mus musculus, added amount 200 μM, negative control = 100%, read-out: Enhancement Ratio (%)
[8] = added amount 100 μM, negative control = 100%

With `O=C(/C=C/c1cc(O)c(O)c(O)c1)c1ccc(O)cc1O` [Compound (17), 3,4,5,2′,4′-Pentahydroxychalcone] the activity at 12.5 µM [1, 3] was 195% and the activity at 25 µM [1, 4] was 598%.

For `O=C(/C=C/c1ccc(O)c(O)c1)c1cc(O)ccc1O` [Compound (18), 3,4,2′,5′-Tetrahydroxychalcone], the activity at 6.25 µM ([1]; Mus musculus, added amount 6.25 μM, negative control = 100%, read-out: Enhancement Ratio (%)) was 471%, the activity at 12.5 µM [1, 3] was 476% and the activity at 25 µM [1, 4] was 874%.

Work on `O=C(/C=C/c1ccc(O)c(O)c1)c1ccc(O)c(O)c1` [Compound (19), 3,4,3′,4′-Tetrahydroxychalcone] yielded an activity at 12.5 µM [1, 3] of 269%, an activity at 25 µM [1, 4] of 312% and an activity at 50 µM [1, 5] of 844%.

With `O=C(/C=C/c1ccc(O)c(O)c1)c1cc(O)cc(O)c1` [Compound (20), 3,4,3′,5′-Tetrahydroxychalcone] the activity at 12.5 µM [1, 3] was 346%, the activity at 25 µM [1, 4] was 482% and the activity at 50 µM [1, 5] was 692%.

Work on `O=C(/C=C/c1ccc(O)c(O)c1)c1ccccc1O` [Compound (21), 3,4,2′-Trihydroxychalcone] yielded an activity at 25 µM [1, 4] of 223%, an activity at 50 µM [1, 5] of 229% and an activity at 100 µM [1, 6] of 502%.

`O=C(/C=C/c1ccc(O)c(O)c1)c1ccc(O)c(O)c1O` [Compound (22), 3,4,2′,3′,4′-Pentahydroxy chalcone] gave an activity at 50 µM [1, 5] of 124%, an activity at 100 µM [1, 6] of 130% and an activity at 200 µM [1, 7] of 242%.

`CNC[C@H](O)c1ccc(O)c(O)c1` [EN, epinephrine, reference compound] gave an activity at 50 µM [1, 5] of 137%, an activity at 100 µM [1, 6] of 218% and an activity at 200 µM [1, 7] of 255%.

For `COc1cc(O)c(CC=C(C)C)c(O)c1C(=O)/C=C/c1ccc(O)cc1` [xanthohumol, Xanthohumol], the “Enhancement of NGF production (in words)” value [1] was “enhanced NGF production in the L-M cells in a concentration-dependent manner”, the activity at 15.6 µM ([1]; Mus musculus, added amount 15.6 μM, negative control = 100%, read-out: Enhancement Ratio (%)) was 160% and the activity at 31.3 µM ([1]; Mus musculus, added amount 31.3 μM, negative control = 100%, read-out: Enhancement Ratio (%)) was 212%. It also gave an activity at 62.5 µM ([1]; Mus musculus, added amount 62.5 μM, negative control = 100%, read-out: Enhancement Ratio (%)) of 473% and an activity at 125 µM ([1]; Mus musculus, added amount 125 μM, negative control = 100%, read-out: Enhancement Ratio (%)) of 897%.

With Isoliquiritigenin [Compound (14)] the “Enhancement of NGF production (in words)” value ([2]; L-M cells) was “enhanced NGF production in the L-M cells in a concentration-dependent manner”, the “Enhancement Ratio (%)” value ([2]; added amount 50 μM) was 310% and the “Enhancement Ratio (%)” value ([2]; added amount 100 μM) was 550%. For the same compound, the “Enhancement Ratio (%)” value ([2]; added amount 200 μM) was 1884%.

In the case of Rosmarinic acid [Compound (23)], the “Enhancement Ratio (%)” value [1, 8] is reported as 110.9% and the “Enhancement Ratio (%)” value ([1]; added amount 200 μM, negative control = 100%) is reported as 131.1%.

In the case of Safflomin A, the “Enhancement of NGF production (in words)” value [1] is reported as “enhanced NGF production of the L-M cells” and the “Enhancement Ratio (%)” value ([1]; added amount 2.5 mg/ml, negative control = 100%) is reported as 130.7%.

With Xanthoangelol [Compound (24)] the “Enhancement Ratio (%)” value ([1]; added amount 25 μM, negative control = 100%) was 126.1%, the “Enhancement Ratio (%)” value ([1]; added amount 50 μM, negative control = 100%) was 202.6% and the “Enhancement Ratio (%)” value [1, 8] was 265.7%.

In the case of α-Hydroxybutein [Compound (25)], the “Enhancement Ratio (%)” value ([1]; added amount 31.25 μM, negative control = 100%) is reported as 160.6%, the “Enhancement Ratio (%)” value ([1]; added amount 62.5 μM, negative control = 100%) is reported as 183.6% and the “Enhancement Ratio (%)” value ([1]; added amount 125 μM, negative control = 100%) is reported as 273.6%. For the same compound, the “Enhancement Ratio (%)” value ([1]; added amount 250 μM, negative control = 100%) was 495.3%.
